From ChEMBL document CHEMBL5518207, “Structure Guided Discovery of Novel Pan Metallo-β-Lactamase Inhibitors with Improved Gram-Negative Bacterial Cell Penetration” (J Med Chem, 2024)

How the values were obtained:
Serratia marcescens = assay: Potentiation of imipenem induced antibacterial activity against Serratia marcescens CL5741 harbouring IMP-1 incubated for 18 to 22 hrs imipenem by spectrophotometer based analysis; format: functional; conditions: time 18-22 hrs
[1] = Inhibition of GST tagged IMP-1 (unknown origin) expressed in Escherichia coli BL21 Star (DE3) competent cells using CCF2-FA as substrate incubated for 2 hrs by fluorescence based analysis
[2] = Inhibition of GST tagged VIM-1 (unknown origin) expressed in Escherichia coli BL21 Star (DE3) competent cells using CCF2-FA as substrate incubated for 2 hrs by fluorescence based analysis
Klebsiella pneumoniae = assay: Potentiation of imipenem induced antibacterial activity against Klebsiella pneumoniae IHMA599644 harbouring VIM-1 incubated for 18 to 22 hrs imipenem by spectrophotometer based analysis; format: functional; conditions: time 18-22 hrs
[3] = Inhibition of GST tagged NDM-1 (unknown origin) expressed in Escherichia coli BL21 Star (DE3) competent cells using CCF2-FA as substrate incubated for 2 hrs by fluorescence based analysis
Escherichia coli = assay: Potentiation of imipenem induced antibacterial activity against Escherichia coli CLB30005 harbouring NDM-1 incubated for 18 to 22 hrs in presence of imipenem by spectrophotometer based analysis; format: functional; conditions: time 18-22 hrs
[4] = Inhibition of GST tagged VIM-2 (unknown origin) expressed in Escherichia coli BL21 Star (DE3) competent cells using CCF2-FA as substrate incubated for 2 hrs by fluorescence based analysis
Pseudomonas aeruginosa [5] = assay: Efflux ratio of MITC95 for potentiation of imipenem induced antibacterial activity against isogenic efflux wild type Pseudomonas aeruginosa MB9798 harbouring IMP to MITC95 for potentiation of imipenem induced antibacterial activity against isogenic efflux deleted mutant Pseudomonas aeruginosa MB9799 harbouring IMP; format: functional
Pseudomonas aeruginosa [6] = assay: Potentiation of imipenem induced antibacterial activity against isogenic efflux wild type Pseudomonas aeruginosa MB9798 harbouring IMP incubated for 18 to 22 hrs imipenem and beta lactamase inhibitor by spectrophotometer based analysis; format: functional; conditions: time 18-22 hrs
Pseudomonas aeruginosa [7] = assay: Potentiation of imipenem induced antibacterial activity against isogenic efflux deleted mutant Pseudomonas aeruginosa MB9799 harbouring IMP incubated for 18 to 22 hrs imipenem and beta lactamase inhibitor by spectrophotometer based analysis; format: functional; conditions: time 18-22 hrs

| Compound | MITC95 (Serratia marcescens) [µM] | IC50 [1] [nM] | IC50 [2] [nM] | MITC95 (Klebsiella pneumoniae) [µM] | IC50 [3] [nM] | MITC95 (Escherichia coli) [µM] | IC50 [4] [nM] | Ratio (Pseudomonas aeruginosa [5]) | MITC95 (Pseudomonas aeruginosa [6]) [µM] | MITC95 (Pseudomonas aeruginosa [7]) [µM] |
| --- | --- | --- | --- | --- | --- | --- | --- | --- | --- | --- |
| Cc1ccc(-c2cccc(S(N)(=O)=O)c2-c2nnn[nH]2)cc1 | 14 | 64 | 57 | 127 | 3.7 | 1.5 | – | – | – | – |
| Nc1ccc(-c2ccc(C(F)(F)F)c(S(N)(=O)=O)c2-c2nn[nH]n2)cn1 | 0.4 | 6.9 | 1.3 | 4.8 | 2.7 | 0.2 | 3.1 | 128 | 200 | 1.56 |
| N=C(N)NCc1ccc(-c2ccc(C(F)(F)F)c(S(N)(=O)=O)c2-c2nn[nH]n2)cc1 | 0.06 | 3.4 | 0.4 | 0.8 | 3.9 | 0.3 | – | 90 | 35.4 | 0.39 |
| Nc1ccc2cccc(-c3ccc(C(F)(F)F)c(S(N)(=O)=O)c3-c3nn[nH]n3)c2n1 | 3.1 | 0.8 | 0.4 | 3.1 | 0.1 | 1.6 | – | 16 | 12.5 | 0.78 |
| Nc1nc2c(-c3ccc(CC4CCNCC4)c(S(N)(=O)=O)c3-c3nn[nH]n3)cccc2s1 | 3.1 | 19 | 2.2 | 1.6 | 0.7 | 0.8 | 2.1 | 11 | 18 | 1.6 |
| NS(=O)(=O)c1c(Br)ccc(-c2ccc(C3CCNCC3)cc2)c1-c1nn[nH]n1 | 0.2 | 10 | 3 | 1.6 | 11 | 0.4 | – | – | – | – |
| Nc1nc2c(-c3ccc(C(F)(F)F)c(S(N)(=O)=O)c3-c3nn[nH]n3)cccc2s1 | 1.6 | 1 | 0.4 | 3.1 | 0.2 | 3.1 | 0.1 | 8 | 6.3 | 0.78 |
| Cc1ccc(-c2ccc(C3CCNCC3)cc2)c(-c2nn[nH]n2)c1S(N)(=O)=O | 6 | 72 | 28 | 25 | 31 | 3 | – | – | – | – |
| NC1CCC(N2CCC(c3ccc(-c4ccc(C(F)(F)F)c(S(N)(=O)=O)c4-c4nn[nH]n4)cc3)CC2)CC1 (stereo not given) | 3.1 | 1.8 | 11 | 50 | 6.4 | 1.6 | – | 4 | 3.1 | 0.78 |
| NC1(c2ccc(-c3ccc(C(F)(F)F)c(S(N)(=O)=O)c3-c3nn[nH]n3)cc2)CCNCC1 | 0.3 | 12.8 | 3 | 0.9 | 9.3 | 0.4 | – | 64 | 25 | 0.39 |
| Nc1ccc2ccc(-c3ccc(C(F)(F)F)c(S(N)(=O)=O)c3-c3nn[nH]n3)cc2n1 | 3.1 | 1.5 | 0.2 | 3.1 | 1.1 | 0.8 | – | 256 | 100 | 0.39 |
| N=C(N)N[C@H]1CC[C@H](c2ccc(C(F)(F)F)c(S(N)(=O)=O)c2-c2nn[nH]n2)CC1 | 0.4 | 25.5 | 0.7 | 1.2 | 17.5 | 1.2 | – | 256 | 200 | 0.78 |
| Nc1nc2cccc(-c3ccc(C(F)(F)F)c(S(N)(=O)=O)c3-c3nn[nH]n3)c2s1 | 6.3 | 0.8 | 0.1 | 6.3 | 0.04 | 1.6 | – | 32 | 50 | 1.56 |
| NS(=O)(=O)c1cccc(-c2ccc(C3CCNCC3)cc2)c1-c1nn[nH]n1 | 9 | 34 | 19 | 38 | 5 | 3 | – | 128 | 200 | 1.56 |
| NCCCc1ccc(-c2cccc3sc(N)nc23)c(-c2nn[nH]n2)c1S(N)(=O)=O | 1.6 | 12 | 1.8 | 1.6 | 0.8 | 0.8 | – | 16 | 12.5 | 0.8 |
| NS(=O)(=O)c1c(C(F)(F)F)ccc(-c2ccc(NS(=O)(=O)C3CC3)cc2)c1-c1nn[nH]n1 | 3.1 | 0.2 | 0.08 | 12.5 | 0.3 | 6.3 | – | 64 | 50 | 0.78 |
| NS(=O)(=O)c1c(Cl)ccc(-c2ccc(C3CCNCC3)cc2)c1-c1nn[nH]n1 | 0.4 | 9 | 3 | 1.6 | 6 | 0.8 | – | 128 | 50 | 0.39 |
| Nc1nc2ccc(-c3ccc(C(F)(F)F)c(S(N)(=O)=O)c3-c3nn[nH]n3)cc2s1 | 3.1 | 2.5 | 0.3 | 12.5 | 0.8 | 3.1 | – | 128 | 200 | 1.56 |
| NS(=O)(=O)c1c(C(F)(F)F)ccc(-c2ccc(C3CCNCC3)cc2)c1-c1nn[nH]n1 | 0.2 | 1.2 | 0.3 | 1.9 | 0.9 | 0.7 | – | 64 | 50 | 0.78 |
